Measured values published in patent US11590116B2 (THERAVANCE BIOPHARMA R&D IP, LLC, priority 2019, dated 2023).

Legend:
[1] = test system: TGF-β-stimulated SMAD3 phosphorylation in BEAS-2B cells; experiment: Cellular ALK5 potency assay, inhibition of TGF-β stimulated pSMAD3 formation in BEAS-2B cells; assay type: cell-based; conditions: Homo sapiens; inhibition of TGF-β stimulated pSMAD3 formation, BEAS-2B cells; read-out: BEAS2B pIC50 (converted)
How it was run: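 Cells seeded overnight; rinse with supplemented HBSS; compound 1 h at 37 °C; TGF-β 10 ng/mL final, 30 min; lyse; AlphaLISA acceptor and detector beads 2 h apart, read next day. Potency expressed as pIC50.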

[2] = target: T1, recombinant human ALK5 (TGF-βR1) protein (Homo sapiens, UniProt P36897); experiment: Biochemical ALK5 (TGF-βR1) assay to measure pKi (LANCE Ultra ULight kinase assay); conditions: apparent pKi from pIC50 by Cheng-Prusoff, read-out: ALK5 pKi (converted)
T1 construct: purchased Life Technologies PR9075A
T1 sequence (P36897 34-503): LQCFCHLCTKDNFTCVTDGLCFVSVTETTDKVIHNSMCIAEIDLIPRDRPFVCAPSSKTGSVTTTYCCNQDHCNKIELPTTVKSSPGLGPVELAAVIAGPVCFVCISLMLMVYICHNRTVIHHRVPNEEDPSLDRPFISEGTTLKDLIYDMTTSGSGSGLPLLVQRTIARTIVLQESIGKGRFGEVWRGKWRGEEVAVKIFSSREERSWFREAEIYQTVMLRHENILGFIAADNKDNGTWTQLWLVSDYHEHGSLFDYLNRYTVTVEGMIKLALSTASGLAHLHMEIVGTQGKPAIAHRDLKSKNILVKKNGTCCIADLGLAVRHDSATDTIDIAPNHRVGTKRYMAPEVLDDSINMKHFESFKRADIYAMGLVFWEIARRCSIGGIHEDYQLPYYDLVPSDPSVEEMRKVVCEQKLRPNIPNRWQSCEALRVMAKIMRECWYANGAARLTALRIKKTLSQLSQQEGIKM
How it was run: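 After a 60 min room-temperature preincubation of ALK5 with compound, phosphorylation proceeds 60 min at 37 °C on ATP addition (125 μM as 5× stock). Detection: Eu-labelled phospho-Thr1342 Topo IIα antibody in EDTA buffer, pH 7.0; emission 665 nm.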

Ki [2] | SMILES | IC50 [1]
0.0398 to 0.316 nM | Cc1cccc(-c2n[nH]cc2-c2ccc3ncc(-c4c(C)nn(C)c4C)cc3n2)n1 [Compound 426, 2-[3-(6-methyl-2-pyridyl)-1H-pyrazol-4-yl]-7-(1,3,5-trimethylpyrazol-4-yl)-1,5-naphthyridine] | 25.1 to 158 nM
0.0398 to 0.316 nM | Cc1cccc(-c2n[nH]cc2-c2ccc3ncc(-c4cn5c(n4)CN(CCN)CC5)cc3n2)n1 [Compound 427, 2-[2-[6-[3-(6-methyl-2-pyridyl)-1H-pyrazol-4-yl]-1,5-naphthyridin-3-yl]-6,8-dihydro-5H-imidazo[1,2-a]pyrazin-7-yl]ethanamine] | 200 to 1260 nM
0.0398 to 0.316 nM | Cc1cccc(-c2n[nH]cc2-c2ccc3ncc(NCCN4CCN(C(C)C)CC4)cc3c2)n1 [Compound 428, N-[2-(4-isopropylpiperazin-1-yl)ethyl]-6-[3-(6-methyl-2-pyridyl)-1H-pyrazol-4-yl]quinolin-3-amine] | 25.1 to 158 nM
0.0398 to 0.316 nM | Cc1cccc(-c2[nH]cnc2-c2ccc3ncc(C4=CCNC4)cc3c2)n1 [Compound 429, 3-(2,5-dihydro-1H-pyrrol-3-yl)-6-[5-(6-methyl-2-pyridyl)-1H-imidazol-4-yl]quinoline] | < 20 nM
< 0.0316 nM | Cc1cccc(-c2[nH]cnc2-c2ccc3ncc(-c4cn[nH]c4)cc3c2)n1 [Compound 430, 6-[5-(6-methyl-2-pyridyl)-1H-imidazol-4-yl]-3-(1H-pyrazol-4-yl)quinoline] | < 20 nM
0.0398 to 0.316 nM | Cc1cccc(-c2n[nH]cc2-c2ccc3ncc(NCC4CNC4)cc3n2)n1 [Compound 431, N-(azetidin-3-ylmethyl)-6-[3-(6-methyl-2-pyridyl)-1H-pyrazol-4-yl]-1,5-naphthyridin-3-amine] | 1580 to 10000 nM
< 0.0316 nM | Cc1cccc(-c2[nH]cnc2-c2ccc3ncc(C4=CCC(O)CC4)cc3c2)n1 (stereo not drawn) [Compound 432, 4-[6-[5-(6-methyl-2-pyridyl)-1H-imidazol-4-yl]-3-quinolyl]cyclohex-3-en-1-ol] | < 20 nM
0.0398 to 0.316 nM | Cc1cccc(-c2n[nH]cc2-c2ccc3ncc(N4CCC[C@@H](N(C)C)C4)cc3n2)n1 [Compound 433, (3R)-N,N-dimethyl-1-[6-[3-(6-methyl-2-pyridyl)-1H-pyrazol-4-yl]-1,5-naphthyridin-3-yl]piperidin-3-amine] | 25.1 to 158 nM
< 0.0316 nM | Cc1cccc(-c2[nH]cnc2-c2ccc3ncc(-c4cnn(C5CNC5)c4)cc3c2)n1 [Compound 434, 3-[1-(azetidin-3-yl)pyrazol-4-yl]-6-[5-(6-methyl-2-pyridyl)-1H-imidazol-4-yl]quinoline] | 25.1 to 158 nM
< 0.0316 nM | Cc1cccc(-c2n[nH]cc2-c2ccc3ncc(-c4cnn(CCN)c4)cc3c2)n1 [Compound 435, 2-[4-[6-[3-(6-methyl-2-pyridyl)-1H-pyrazol-4-yl]-3-quinolyl]pyrazol-1-yl]ethanamine] | 25.1 to 158 nM
0.0398 to 0.316 nM | Cc1cccc(-c2n[nH]cc2-c2ccc3ncc(-c4ccc(C)nc4C)cc3n2)n1 [Compound 436, 7-(2,6-dimethyl-3-pyridyl)-2-[3-(6-methyl-2-pyridyl)-1H-pyrazol-4-yl]-1,5-naphthyridine] | 25.1 to 158 nM
0.0398 to 0.316 nM | Cc1cccc(-c2[nH]cnc2-c2ccc3ncc(N4CCC(N)CC4)cc3c2)n1 [Compound 438, 1-[6-[5-(6-methyl-2-pyridyl)-1H-imidazol-4-yl]-3-quinolyl]piperidin-4-amine] | 25.1 to 158 nM
0.0398 to 0.316 nM | CNCCn1cc(-c2cnc3ccc(-c4c(-c5cccc(C)n5)nnn4Cc4ccccc4)nc3c2)cn1 [Compound 439, 2-[4-[6-[3-benzyl-5-(6-methyl-2-pyridyl)triazol-4-yl]-1,5-naphthyridin-3-yl]pyrazol-1-yl]-N-methyl-ethanamine] | 25.1 to 158 nM
0.0398 to 0.316 nM | Cc1cccc(-c2n[nH]cc2-c2ccc3ncc(-c4cn5c(n4)CN(C4CCNC4)CC5)cc3n2)n1 (stereo not drawn) [Compound 440, 2-[3-(6-methyl-2-pyridyl)-1H-pyrazol-4-yl]-7-(7-pyrrolidin-3-yl-6,8-dihydro-5H-imidazo[1,2-a]pyrazin-2-yl)-1,5-naphthyridine] | 200 to 1260 nM
< 0.0316 nM | Cc1cccc(-c2[nH]cnc2-c2ccc3ncc(Nc4ccc(N5CCN(C)CC5)cn4)cc3c2)n1 [Compound 441, N-[5-(4-methylpiperazin-1-yl)-2-pyridyl]-6-[5-(6-methyl-2-pyridyl)-1H-imidazol-4-yl]quinolin-3-amine] | 25.1 to 158 nM
0.0398 to 0.316 nM | COC(=O)[C@H]1CN(c2cnc3ccc(-c4c[nH]nc4-c4cccc(C)n4)nc3c2)CCN1 [Compound 442, methyl (2R)-4-[6-[3-(6-methyl-2-pyridyl)-1H-pyrazol-4-yl]-1,5-naphthyridin-3-yl]piperazine-2-carboxylate] | 25.1 to 158 nM
0.0398 to 0.316 nM | Cc1cccc(-c2[nH]cnc2-c2ccc3ncc(-c4cnc5c(c4)CNC5)cc3c2)n1 [Compound 443, 3-(6,7-dihydro-5H-pyrrolo[3,4-b]pyridin-3-yl)-6-[5-(6-methyl-2-pyridyl)-1H-imidazol-4-yl]quinoline] | 25.1 to 158 nM
0.0398 to 0.316 nM | Cc1cccc(-c2[nH]cnc2-c2ccc3ncc(C4=CCC(C(=O)OC5CCNCC5)CC4)cc3c2)n1 (stereo not drawn) [Compound 444, 4-piperidyl 4-[6-[5-(6-methyl-2-pyridyl)-1H-imidazol-4-yl]-3-quinolyl]cyclohex-3-ene-1-carboxylate] | 25.1 to 158 nM
0.0398 to 0.316 nM | Cc1cccc(-c2n[nH]cc2-c2ccc3ncc(-c4ncn5c4NCC5)cc3n2)n1 [Compound 445, 7-(2,3-dihydro-1H-imidazo[1,5-a]imidazol-7-yl)-2-[3-(6-methyl-2-pyridyl)-1H-pyrazol-4-yl]-1,5-naphthyridine] | 25.1 to 158 nM
0.0398 to 0.316 nM | FC(F)c1cccc(-c2n[nH]cc2-c2ccc3ncc(N4CCCNCC4)cc3n2)n1 [Compound 446, 7-(1,4-diazepan-1-yl)-2-[3-[6-(difluoromethyl)-2-pyridyl]-1H-pyrazol-4-yl]-1,5-naphthyridine] | 25.1 to 158 nM
0.0398 to 0.316 nM | Cc1nc(-c2nc3ccccn3c2-c2ccc3ncc(-c4nc5n(n4)CCNC5)cc3n2)ccc1F [Compound 447, 2-[2-(5-fluoro-6-methyl-2-pyridyl)imidazo[1,2-a]pyridin-3-yl]-7-(5,6,7,8-tetrahydro-[1,2,4]triazolo[1,5-a]pyrazin-2-yl)-1,5-naphthyridine] | 25.1 to 158 nM
< 0.0316 nM | Cc1cccc(-c2nc[nH]c2-c2ccc3ncc(-c4cnn([C@@H]5CCCC[C@H]5N)c4)cc3c2)n1 [Compound 448, (1R,2R)-2-[4-[6-[4-(6-methyl-2-pyridyl)-1H-imidazol-5-yl]-3-quinolyl]pyrazol-1-yl]cyclohexanamine] | 25.1 to 158 nM
< 0.0316 nM | Cc1nc(-c2n[nH]cc2-c2ccc3ncc(-c4cn[nH]c4)cc3c2)ccc1F [Compound 449, 6-[3-(5-fluoro-6-methyl-2-pyridyl)-1H-pyrazol-4-yl]-3-(1H-pyrazol-4-yl)quinoline] | < 20 nM
0.0398 to 0.316 nM | Cc1cccc(-c2[nH]cnc2-c2ccc3ncc(-c4cccc(NC5CCNCC5)n4)cc3c2)n1 [Compound 450, 6-[6-[5-(6-methyl-2-pyridyl)-1H-imidazol-4-yl]-3-quinolyl]-N-(4-piperidyl)pyridin-2-amine] | 25.1 to 158 nM
